These results are taken from US20150190460A1, “OSTEOPONTIN PEPTIDE FRAGMENTS FOR USE IN SUPPRESSION OR PREVENTION OF TUMOR GROWTH” (FORSYTH DENTAL INFIRMARY FOR CHILDREN (D/B/A THE FORSYTH …, priority 2012, published 2015).

Series [1] in a line: Competition ELISA for bovine OPN in plasma of mice fed with OPN. The class given is in vivo. Particulars: mice fed 50 mg of OPN over 10-30 minutes. Here is the method:
In a previous experiment the inventors have detected osteopontin peptides in the plasma of mice fed with OPN using a competition ELISA for bovine OPN: the assay was designed to detect any peptides that can block interaction of intact bovine OPN with the polyclonal antibody used. Plasma from mice fed 50 mg of OPN over 10-30 minutes was analyzed using this ELISA. Peak antibody reactivity was detected at 1-4 hours after feeding, with the highest mean levels being close to 5000 ng/ml.
On the technique in general: An ELISA detects its analyte on a solid surface through an enzyme-linked reagent.

Series [2] concerns 275-3-2 murine ras-transformed fibroblast cells. The series is described as follows: Oral administration of osteopontin to 129B6F1 tumor-bearing mice. The class given is in vivo. Particulars: for size of the tumor: FIG. 1b. The method, then: A bovine OPN preparation (Lacprodan®, Arla Foods Ingredients, Viby, Denmark) was dissolved in deionized water, filtered, and administered at final concentrations of 0.03, 0.12, or 0.3 mg/ml to 129B6F1 tumor-bearing mice starting either on the day of tumor cell inoculation (Day 0) or five days later (Day 5). The mice were initially inoculated with 5×10^4 mycoplasma-free 275-3-2 murine ras-transformed fibroblast cells (see Wu 2000). Tumor size was measured with calipers and monitored until the tumors reached 20% of the body weight of the animals, at which time the mice were sacrificed and tissue/plasma samples collected. Statistical significance was calculated using one-way ANOVA with Bonferroni post-test.

“OPN: bovine OPN preparation (Lacprodan®, Arla Foods Ingredients, Viby, Denmark)”: in series [1], the “highest mean plasma levels (immunoreactive OPN peptides)” value is approximately 5000 ng/mL and the “time of peak antibody reactivity in plasma after feeding” value lay in the range of 1 to 4 h. Moreover, in series [2] (oral OPN 0.12 mg/ml started five days after tumor cell injection, at 15 days), the “size of the tumor” value is reported as “statistically significant decrease”. Also, the “size of the tumor” value in series [2] (oral OPN 0.3 mg/ml started five days after tumor cell injection, at 17 days) is “statistically significant decrease”. The “effect on the size of the tumors” value in series [2] (oral OPN in drinking water started at the time of tumor injection (Day 0), up to 17 days, FIG. 1A) is listed as “no significant effect”. Besides, the “most effective dose of OPN preparation” value in series [2] (oral dosing experiments, 0.03, 0.12, 0.3 mg/ml, highest dose used) was 0.3 mg/mL. In addition, in series [2] (oral, about 1.5 mg protein administered), the “effect of treatment on mouse weight” value is recorded as “nor is there any effect”.
